In paper PMC7774954, “Interactomic affinity profiling by holdup assay: Acetylation and distal residues impact the PDZome-binding specificity of PTEN phosphatase” (PLoS ONE, 2020):
*1 amine or outer side, *2 acyl side, *3 side chain or, on linkers, in order; H or OH if unused. Where a SMILES comes first, the peptide text is derived from it. The star is where a group is joined. X1 = O=C(CCCC[C@@H]1SC[C@@H]2NC(=O)N[C@@H]21)NCCCOCCOCCOCCCN*; Suc = O=C(CCC(=O)[*:2])[*:1]

Assays:
[1] = tested on: CARD14-1; experiment: Holdup assay, CARD14-1; assay type: binding, human
[2] = biological target: T1, HTRA1-1 (Homo sapiens, UniProt Q92743); experiment: Holdup assay, HTRA1-1; assay type: binding
T1 construct: His-MBP or His-TRX (N); made in house; host or cells: E. coli
Experimental: (§1) The holdup assay was performed on a Tecan freedom Evo200 robot with 384-well plates in singlicate for the three 11-mer PTEN variants and the 13-mer PTEN peptide as described in [31, 32]. Briefly, prior to interaction assay, 2.5 μL of streptavidin resin was saturated in each well with 20 μL of biotinylated PBM peptides (42 μM) and then washed twice with an excess of free biotin, while the reference resin was incubated only with biotin. Right before the holdup experiment, the PDZ library was spiked with an internal standard of lysozyme. Then, the biotin- or PBM-saturated resin was incubated, each in a distinct well of a 384-well plate, with complete cell lysates diluted so that the concentration of the tag-PDZ present in the crude extract is adjusted at 4 μM. After a sufficient time to reach complex equilibrium (15 min.), a fast and mild filtration step is performed and the tag-PDZ concentrations were measured by capillary electrophoresis instrument (LabChip GXII, PerkinElmer, Massachusets, USA). Standard markers were used to convert migration time into molecular weight on the LabChip software and inappropriate molecular weight markers were corrected or excluded.
(§2) For filtered data, the BI was extracted with the following equation (Eq 1) that estimates the depleted fraction after superimposition of the sample and reference electropherograms: BI=Iref−Ilig/Iref (1) where Iref and Ilig are the intensities of the tag-PDZ peaks measured, for each PDZ domain/PBM peptide interaction pair, in the biotin reference and the PBM electropherograms, respectively.

[3] = tested on: MAGI3-3; experiment: Holdup assay, MAGI3-3; assay type: binding, human
[4] = tested on: GRIP2-3; experiment: Holdup assay, GRIP2-3; assay type: binding, human
[5] = biological target: INADL-8 (Homo sapiens, UniProt Q8NI35); experiment: Holdup assay, INADL-8; assay type: binding
[6] = tested on: GRIP2-4; experiment: Holdup assay, GRIP2-4; assay type: binding, human
[7] = tested on: LIMK1-1; experiment: Holdup assay, LIMK1-1; assay type: binding, human
[8] = tested on: CNKSR3-1; experiment: Holdup assay, CNKSR3-1; assay type: binding, human
[9] = tested on: FRMPD1-1; experiment: Holdup assay, FRMPD1-1; assay type: binding, human
[10] = biological target: T2, SDCBP PDZ 1 (Homo sapiens, UniProt O00560); experiment: Holdup assay, SDCBP-1; assay type: binding; details: PDZ domain SDCBP-1
T2 construct: made in house; host or cells: E. coli
T2 sequence (O00560 114-193 limits assumed): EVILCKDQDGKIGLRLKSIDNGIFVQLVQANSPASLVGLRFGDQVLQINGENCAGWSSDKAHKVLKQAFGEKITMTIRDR
Experimental: as §1, §2
(§3) BIs were transformed into dissociation constants (KD) using the following formula: KD=([PDZtot]−BI·[PDZtot])·([PBMtot]−BI·[PDZtot])/BI·[PDZtot] (2) where [PDZtot] and [PBMtot] correspond to the total concentrations of the PDZ domain (usually around 4 μM) and the PBM peptide used during the assay. Since the PBMtot concentration in the resin during the holdup assay parameter may differ from one peptide to another and remains unknown, it is impossible to directly convert BI values into KD constants. We systematically determined the KD constants for a subset of PDZ/PBM pairs by competitive FP. […] For each PBM, the average peptide concentration was calculated after outlier rejection based on the absolute distances from the median as compared to three times the standard deviation (3σ rule), with never more than 2 values rejected.

[11] = tested on: GRIP1-2; experiment: Holdup assay, GRIP1-2; assay type: binding, human
[12] = biological target: T3, NHERF2 PDZ 2 (Homo sapiens, UniProt Q15599); experiment: Holdup assay, NHERF2-2; assay type: binding; details: for BI: PDZ domain NHERF2-2 (gene MPDZ, 9)
T3 construct: made in house; host or cells: E. coli
Experimental: as §1, §2, §3

[13] = biological target: DLG4-2 (Homo sapiens, UniProt P78352); experiment: Holdup assay, DLG4-2; assay type: binding
[14] = biological target: T4, DFNB31-3 (Homo sapiens, UniProt Q9P202); experiment: Holdup assay, DFNB31-3; assay type: binding
T4 sequence (Q9P202 1-907): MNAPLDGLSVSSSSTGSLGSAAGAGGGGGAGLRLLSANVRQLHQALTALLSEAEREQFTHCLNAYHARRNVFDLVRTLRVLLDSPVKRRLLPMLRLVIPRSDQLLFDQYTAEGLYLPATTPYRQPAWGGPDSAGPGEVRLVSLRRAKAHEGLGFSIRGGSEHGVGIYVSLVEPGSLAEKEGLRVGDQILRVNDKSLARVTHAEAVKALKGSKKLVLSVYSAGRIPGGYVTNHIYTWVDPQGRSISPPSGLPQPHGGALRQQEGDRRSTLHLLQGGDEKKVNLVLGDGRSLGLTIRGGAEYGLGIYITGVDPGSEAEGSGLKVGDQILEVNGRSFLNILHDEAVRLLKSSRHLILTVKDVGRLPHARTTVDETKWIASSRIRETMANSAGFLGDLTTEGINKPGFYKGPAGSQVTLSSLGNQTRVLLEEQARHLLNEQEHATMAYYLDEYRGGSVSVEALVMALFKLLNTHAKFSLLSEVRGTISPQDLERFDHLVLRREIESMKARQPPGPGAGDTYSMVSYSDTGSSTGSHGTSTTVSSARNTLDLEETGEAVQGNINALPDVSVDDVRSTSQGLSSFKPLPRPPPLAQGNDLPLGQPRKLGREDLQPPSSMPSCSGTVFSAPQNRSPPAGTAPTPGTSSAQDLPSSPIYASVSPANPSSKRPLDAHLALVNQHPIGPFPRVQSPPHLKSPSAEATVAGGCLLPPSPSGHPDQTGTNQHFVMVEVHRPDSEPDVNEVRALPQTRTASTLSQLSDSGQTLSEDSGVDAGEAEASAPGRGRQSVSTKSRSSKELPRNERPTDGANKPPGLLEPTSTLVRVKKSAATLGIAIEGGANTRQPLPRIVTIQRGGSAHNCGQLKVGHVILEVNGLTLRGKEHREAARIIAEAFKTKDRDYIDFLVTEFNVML

[15] = tested on: LIN7C-1; experiment: Holdup assay, LIN7C-1; assay type: binding, human
[16] = tested on: APBA3-1; experiment: Holdup assay, APBA3-1; assay type: binding, human

T1 sequence (Q92743 365-467 limits assumed): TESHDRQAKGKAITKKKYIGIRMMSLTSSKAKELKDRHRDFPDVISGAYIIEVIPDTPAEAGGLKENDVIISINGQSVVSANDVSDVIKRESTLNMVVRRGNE
DLG4-2, sequence (P78352 160-246): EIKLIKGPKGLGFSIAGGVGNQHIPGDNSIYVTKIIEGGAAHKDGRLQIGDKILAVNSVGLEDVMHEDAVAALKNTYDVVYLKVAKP
INADL-8, sequence (Q8NI35 whole entry): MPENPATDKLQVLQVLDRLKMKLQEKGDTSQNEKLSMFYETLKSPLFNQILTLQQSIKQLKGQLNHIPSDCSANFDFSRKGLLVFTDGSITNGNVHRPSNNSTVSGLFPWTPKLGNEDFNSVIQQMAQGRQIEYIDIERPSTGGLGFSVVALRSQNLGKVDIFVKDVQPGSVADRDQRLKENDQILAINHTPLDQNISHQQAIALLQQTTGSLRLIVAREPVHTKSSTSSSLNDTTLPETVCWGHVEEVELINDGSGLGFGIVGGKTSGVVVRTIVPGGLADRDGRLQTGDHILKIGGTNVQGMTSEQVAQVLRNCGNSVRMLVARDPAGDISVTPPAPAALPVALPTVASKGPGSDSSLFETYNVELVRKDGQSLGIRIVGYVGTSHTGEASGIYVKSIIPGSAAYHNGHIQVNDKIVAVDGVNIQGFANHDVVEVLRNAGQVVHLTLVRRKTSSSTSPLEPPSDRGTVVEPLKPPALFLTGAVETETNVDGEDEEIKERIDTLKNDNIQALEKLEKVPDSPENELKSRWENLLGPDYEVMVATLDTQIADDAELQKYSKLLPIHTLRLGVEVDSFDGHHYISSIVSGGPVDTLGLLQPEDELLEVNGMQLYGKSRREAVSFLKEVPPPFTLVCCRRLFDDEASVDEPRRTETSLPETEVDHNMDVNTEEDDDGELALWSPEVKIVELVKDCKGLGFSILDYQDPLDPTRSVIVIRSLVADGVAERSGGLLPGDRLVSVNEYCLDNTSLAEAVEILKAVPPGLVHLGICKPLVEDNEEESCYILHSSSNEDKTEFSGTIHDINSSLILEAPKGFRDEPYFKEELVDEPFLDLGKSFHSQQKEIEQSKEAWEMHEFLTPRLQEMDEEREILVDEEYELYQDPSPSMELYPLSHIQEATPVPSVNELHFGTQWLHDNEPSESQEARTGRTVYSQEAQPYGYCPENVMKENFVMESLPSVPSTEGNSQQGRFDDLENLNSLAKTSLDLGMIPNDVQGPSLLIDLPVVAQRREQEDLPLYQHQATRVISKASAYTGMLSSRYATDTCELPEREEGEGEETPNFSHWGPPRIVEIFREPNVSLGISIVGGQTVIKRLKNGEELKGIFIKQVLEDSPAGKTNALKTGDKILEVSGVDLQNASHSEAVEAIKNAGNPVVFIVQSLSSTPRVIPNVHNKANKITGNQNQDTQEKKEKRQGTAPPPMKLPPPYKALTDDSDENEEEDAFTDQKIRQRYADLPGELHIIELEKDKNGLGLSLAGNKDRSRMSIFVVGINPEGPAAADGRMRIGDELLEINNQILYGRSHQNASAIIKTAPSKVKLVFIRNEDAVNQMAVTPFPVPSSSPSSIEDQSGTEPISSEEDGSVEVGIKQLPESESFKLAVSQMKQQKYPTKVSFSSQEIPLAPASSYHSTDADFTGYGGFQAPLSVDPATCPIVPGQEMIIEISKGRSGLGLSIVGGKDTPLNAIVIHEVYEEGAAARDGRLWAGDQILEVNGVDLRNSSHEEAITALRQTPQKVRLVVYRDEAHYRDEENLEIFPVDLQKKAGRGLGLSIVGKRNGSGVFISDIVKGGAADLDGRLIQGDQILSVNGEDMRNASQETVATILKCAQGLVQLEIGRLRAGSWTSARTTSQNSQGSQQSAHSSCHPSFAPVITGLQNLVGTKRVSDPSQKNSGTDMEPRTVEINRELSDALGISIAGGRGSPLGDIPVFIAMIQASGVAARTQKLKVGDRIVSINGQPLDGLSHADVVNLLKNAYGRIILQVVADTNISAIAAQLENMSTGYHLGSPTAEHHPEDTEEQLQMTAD
T3 sequence (Q15599 150-230 limits assumed): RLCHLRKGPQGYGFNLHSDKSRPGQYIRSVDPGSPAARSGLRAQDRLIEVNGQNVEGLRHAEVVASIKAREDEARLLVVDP

SMILES	BI [1]	Kd [2] [µM]	BI ([2]; HTRA1-1)	BI [3]	LogKD [3]	BI [4]	LogKD [4]	BI [5]	Kd [5] [µM]	BI [6]	BI [7]	LogKD [7]	BI [8]	BI [9]	BI [10]	BI [11]	BI [12]	BI [14]	BI [15]	BI [16]	also measured
CC[C@H](C)[C@H](NC(=O)[C@H](CCC(N)=O)NC(=O)[C@@H](NC(=O)[C@H](Cc1c[nH]cn1)NC(=O)[C@H](CCC(N)=O)NC(=O)[C@H](CC(=O)O)NC(=O)[C@H](CCC(=O)O)NC(=O)[C@H](CC(=O)O)NC(=O)CCC(=O)NCCCOCCOCCOCCCNC(=O)CCCC[C@@H]1SC[C@@H]2NC(=O)N[C@@H]21)[C@@H](C)O)C(=O)N[C@H](C(=O)N[C@@H](CCCCN)C(=O)N[C@H](C(=O)O)C(C)C)[C@@H](C)O [PTEN_11]	-0.077	47.6	0.405	-0.099	3.519	0.054	3.519	0.388	51.2	-0.019	-0.066	3.519	0.028	0.017	-0.001	0.006	0.476	0.089	-0.041	-0.03	LogKD [1]: 3.519; BI (binding intensity) ([2]; HTRA1-1, holdup, singlicate): 0.41; LogKD [6]: 3.519; LogKD [8]: 3.519; LogKD [9]: 3.519; LogKD [11]: 3.519; Kd [12]: 35.3 µM; BI [13]: 0.124; LogKD [14]: 3.519; LogKD [15]: 3.519; LogKD [16]: 3.519
CC[C@H](C)[C@H](NC(=O)[C@H](CCC(N)=O)NC(=O)[C@@H](NC(=O)[C@H](Cc1c[nH]cn1)NC(=O)[C@H](CCC(N)=O)NC(=O)[C@H](CC(=O)O)NC(=O)[C@H](CCC(=O)O)NC(=O)[C@H](CC(=O)O)NC(=O)[C@H](Cc1ccccc1)NC(=O)[C@@H]1CCCN1C(=O)CCC(=O)NCCCOCCOCCOCCCNC(=O)CCCC[C@@H]1SC[C@@H]2NC(=O)N[C@@H]21)[C@@H](C)O)C(=O)N[C@H](C(=O)N[C@@H](CCCCN)C(=O)N[C@H](C(=O)O)C(C)C)[C@@H](C)O [PTEN_13] ({X1-Suc}-PFDEDQHTQITKV-OH)	-0.001	52.3	0.235	-0.03	–	0.027	–	0.247	48.8	-0.022	-0.103	–	0.002	0.081	0.009	0.009	0.117	0.061	-0.105	0.015	BI [13]: -0.004; LogKD [13]: 3.826; LogKD [14]: 3.826
CC[C@H](C)[C@H](NC(=O)[C@H](CCC(N)=O)NC(=O)[C@@H](NC(=O)[C@H](Cc1c[nH]cn1)NC(=O)[C@H](CCC(N)=O)NC(=O)[C@H](CC(=O)O)NC(=O)[C@H](CCC(=O)O)NC(=O)[C@H](CC(=O)O)NC(=O)CCC(=O)NCCCOCCOCCOCCCNC(=O)CCCC[C@@H]1SC[C@@H]2NC(=O)N[C@@H]21)[C@@H](C)O)C(=O)N[C@H](C(=O)N[C@@H](CCCNC(=N)N)C(=O)N[C@H](C(=O)O)C(C)C)[C@@H](C)O [PTEN_KR] ({X1-Suc}-DEDQHTQITRV-OH)	-0.077	40.4	0.368	-0.043	3.655	0.027	3.655	0.532	20.1	-0.019	-0.08	3.655	-0.031	-0.047	-0.006	-0.06	0.523	-0.014	-0.071	-0.056	LogKD [1]: 3.655; LogKD [6]: 3.655; LogKD [8]: 3.655; LogKD [9]: 3.655; LogKD [11]: 3.655; Kd [12]: 20.9 µM; BI [13]: 0.284; Kd [13]: 60.2 µM; LogKD [14]: 3.655; LogKD [15]: 3.655; LogKD [16]: 3.655
CC[C@H](C)[C@H](NC(=O)[C@H](CCC(N)=O)NC(=O)[C@@H](NC(=O)[C@H](Cc1c[nH]cn1)NC(=O)[C@H](CCC(N)=O)NC(=O)[C@H](CC(=O)O)NC(=O)[C@H](CCC(=O)O)NC(=O)[C@H](CC(=O)O)NC(=O)CCC(=O)NCCCOCCOCCOCCCNC(=O)CCCC[C@@H]1SC[C@@H]2NC(=O)N[C@@H]21)[C@@H](C)O)C(=O)N[C@H](C(=O)N[C@@H](CCCCNC(C)=O)C(=O)N[C@H](C(=O)O)C(C)C)[C@@H](C)O [PTEN_Ac]	–	10.2	0.712	-0.079	3.605	0.055	3.605	0.509	25	–	-0.047	3.605	–	-0.03	-0.057	-0.02	0.066	0.275	0.012	-0.113	LogKD [9]: 3.605; LogKD [11]: 3.605; Kd [14]: 70.9 µM; LogKD [15]: 3.605; LogKD [16]: 3.605
